These results are taken from patent publication US10844019B2, “1-phenyl-3-carbamoyl urea compound, and use thereof” (Sumitomo Chemical Company, Limited, priority 2016, dated 2020).

This test relates to cucumber phytophthora blight fungi (Phytophthora capsici). The test can be described thus: Test for controlling cucumber phytophthora blight fungi (growth in PDB medium, absorbance at 600 nm). The note with it: 4.5 mg in 100 μL dimethyl sulfoxide, 1 μL of it in 150 μL PDB medium with zoospores, 27° C., three days, Efficacy=100×(X−Y)/X. It counts as cell-based. The method, then:
Four point five (4.5) milligrams of the present compound was diluted with 100 μL of dimethyl sulfoxide. One (1) μL portion of the diluted liquid was dispensed into a titer plate (96 wells), and thereto was then dispensed 150 μL of a potato dextrose broth medium (PDB medium) containing zoospores of cucumber phytophthora blight fungi (Phytophthora capsici). This plate was cultured at 27° C. for three days, thereby allowing the cucumber phytophthora blight fungi to undergo proliferation, and the absorbance at 600 nm of each well of the titer plate was then measured to determine a degree of growth of the cucumber phytophthora blight fungi. The efficacy was calculated from the determined degree of growth by the below-mentioned “Equation 1”. As a result, the efficacy of the Present compound was 80% or more. Efficacy=100×(X−Y)/X “Equation 1” where X: Degree of fungal growth in non-treated area Y: Degree of fungal growth in treated area
In the test example, a non-treated area means an area in which a test was conducted in the same manner, except that dimethyl sulfoxide was dispensed in place of the present compound diluted with dimethyl sulfoxide.

Turning to `CCOC(=O)COc1ncccc1Oc1cc(NC(C)=O)c(F)cc1Cl` [N-[4-chloro-2-fluoro-5-{2-(ethoxycarbonyl)methoxy-3-pyridyloxy}phenyl]acetamide], the Efficacy entry is reported as “less than 50%”.
In turn, `CCOC(=O)COc1ncccc1Oc1cc(NC(=O)NC(N)=O)c(F)cc1Cl` [Present compound] registered an Efficacy not below 80%.
